27 compounds from patent US20080233102A1, “Drug Therapy for Celiac Sprue” (priority 2002, published 2008) can be followed below.

Like-named read-outs stand apart in the source and are kept apart here.

The target of experiment [1] is T1, recombinant human tissue transglutaminase (Homo sapiens, UniProt P21980).
T1 construct: made in house
T1 sequence (P21980 1-687): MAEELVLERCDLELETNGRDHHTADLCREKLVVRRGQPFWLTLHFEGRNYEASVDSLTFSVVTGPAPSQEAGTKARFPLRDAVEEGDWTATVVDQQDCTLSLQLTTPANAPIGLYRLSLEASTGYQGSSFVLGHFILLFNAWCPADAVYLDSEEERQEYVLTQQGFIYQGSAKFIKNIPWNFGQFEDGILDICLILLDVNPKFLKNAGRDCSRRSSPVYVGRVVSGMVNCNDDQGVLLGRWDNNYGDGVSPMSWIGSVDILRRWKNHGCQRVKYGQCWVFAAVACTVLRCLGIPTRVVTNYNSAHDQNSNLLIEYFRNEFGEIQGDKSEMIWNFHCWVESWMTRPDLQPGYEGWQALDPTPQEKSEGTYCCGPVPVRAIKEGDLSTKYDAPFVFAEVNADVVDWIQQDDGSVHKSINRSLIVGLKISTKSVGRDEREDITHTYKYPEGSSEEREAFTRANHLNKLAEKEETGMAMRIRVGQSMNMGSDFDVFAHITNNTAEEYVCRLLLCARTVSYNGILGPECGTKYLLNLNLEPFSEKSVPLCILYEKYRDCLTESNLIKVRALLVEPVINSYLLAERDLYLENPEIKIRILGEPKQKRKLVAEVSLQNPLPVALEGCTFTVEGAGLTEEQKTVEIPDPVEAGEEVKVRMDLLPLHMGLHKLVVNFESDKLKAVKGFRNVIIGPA
Briefly: tTGase assay with recombinant human tissue transglutaminase. Type of experiment: biochemical. As to conditions: dihydroisoxazole inhibitors of human tTGase; for Ki: competitive with Cbz-Gln-Gly substrate, read-out: Dissociation Constants (Kl); for Inhibition Rate Constants (kinh): irreversible inactivation.

Experiment [2] has as its target T2, Tissue transglutaminase (tTG) (Homo sapiens, UniProt P21980).
T2 sequence (P21980 1-687): T1 sequence (P21980 1-687)
Briefly: Inhibition of tTG (residual activity, glutamate dehydrogenase coupled assay). Type of experiment: biochemical. Here is the method:
Inhibition of tTG. tTG (9 μM) was inactivated in 200 mM MOPS, pH=7.1, 5 mM CaCl2, 1 mM ETDA at 30° C. containing 0-600 μM Pro-Gln-Pro-Aci-Leu-Pro-Tyr. Every 20 minutes a 40 μl aliquot was removed and residual tTG activity was assayed in 0.5 ml reaction containing 200 mM MOPS, pH=7.1, 5 mM CaCl2, 1 mM ETDA, 10 mM α-ketoglutarate, 180 U/ml glutamate dehydrogenase (Biozyme laboratories) at 30° C. for 20 minutes by measuring the decrease of absorption at 340 nm. Residual activity was corrected by the corresponding uninhibited tTG reaction (0 μM inhibitor) and fitted to an exponential decay. Kinetic parameters were obtained by double-reciprocal plotting of the apparent second-order inactivation constant or, for isatin analogs, by fitting the data for reversible inhibitors to a standard Michaelis Menten equation with a competitive inhibition constant.

The mark [3] stands for this setting: isatin derivatives, reversible, competitive inhibition constant, read-out: Kl.
Where [4] appears, read: dihydroisoxazoles, 200 mM MOPS, pH=7.1, 30° C., read-out: KI.

On to `O=C(N[C@@H](Cc1c[nH]c2ccc(O)cc12)C(=O)NCC1CC(Br)=NO1)OCC1=Cc2ccccc2S1(=O)=O` (stereo partly drawn) [compound 4, {(S)-1-[(3-Bromo-4,5-dihydro-isoxazol-5-ylmethyl)-carbamoyl]-2-(5-hydroxy-1H-indol-3-yl)-ethyl}-carbamic acid 1,1-dioxo-1H-1λ6-benzo[b]thiophen-2-ylmethyl ester], for which, in experiment [1], the kinh/Kl worked out at 6800 min^−1M^−1, the Ki was 79 µM and the “Inhibition Rate Constants (kinh)” value was found to be 0.54 min⁻¹.
Taken in the same sequence, the figures for `O=C(N[C@@H](Cc1ccc(O)cc1)C(=O)NCC1CC(Br)=NO1)OCc1ccccc1` (stereo partly drawn) [1b] were 2000 min^−1M^−1, 420 µM and 0.86 min⁻¹.
`O=C(N[C@@H](Cc1c[nH]c2ccccc12)C(=O)NCC1CC(Br)=NO1)OCc1ccccc1` (stereo partly drawn) [1e, {(S)-1-[(3-Bromo-4,5-dihydro-isoxazol-5-ylmethyl)-carbamoyl]-2-(1H-indol-3-yl)-ethyl}carbamic acid benzyl ester]: in experiment [1], the kinh/Kl was 2500 min^−1M^−1, the Ki turned out to be 310 µM and the “Inhibition Rate Constants (kinh)” value was found to be 0.78 min⁻¹.
As to `CC(=O)N[C@@H](Cc1ccccc1)C(=O)NCC1CC(Br)=NO1` (stereo partly drawn) [3a, (S)-2-Acetylamino-N-(3-bromo-4,5-dihydro-isoxazol-5-ylmethyl)-3-phenyl-propionamide], in experiment [1], the kinh/Kl was 220 min^−1M^−1 and the “Inhibition Rate Constants (kinh)” value stood at 0.60 min⁻¹.
As for `O=C(N[C@@H](Cc1ccc(O)cc1)C(=O)NCC1CC(Br)=NO1)OCc1ccncc1` (stereo partly drawn) [3b, {(S)-1-[(3-Bromo-4,5-dihydro-isoxazol-5-ylmethyl)-carbamoyl]-2-(4-hydroxy-phenyl)-ethyl}-carbamic acid pyridin-4-ylmethyl ester], in experiment [1], the kinh/Kl amounted to 1500 min^−1M^−1, the Ki came to 81 µM and the “Inhibition Rate Constants (kinh)” value was 0.12 min⁻¹.
With `O=C(N[C@@H](Cc1cccc(F)c1)C(=O)NCC1CC(Br)=NO1)OCc1ccccc1` (stereo partly drawn) [1d, {(S)-1-[(3-Bromo-4,5-dihydro-isoxazol-5-ylmethyl)-carbamoyl]-2-(3-fluoro-phenyl)-ethyl}-carbamic acid benzyl ester], in experiment [1], the kinh/Kl is listed as 2200 min^−1M^−1, the Ki came out at 390 µM and the “Inhibition Rate Constants (kinh)” value worked out at 0.84 min⁻¹.
As for `O=C1Nc2cc(-c3ccccc3)ccc2C1=O` [R1 = R3 = H; R2 = Ph], in experiment [2] (setting [3]), the Ki is 350 µM.
As for `O=C(NCC1CC(Br)=NO1)Nc1ccc(Cl)cc1C(F)(F)F` (stereo not drawn) [1-(3-Bromo-4,5-dihydro-isoxazol-5-ylmethyl)-3-(4-chloro-2-trifluoromethyl-phenyl)-urea], the Ki in experiment [2] (setting [4]) came out at 1300 µM.
Consider `Cc1ccc(C)c(NC(=O)NCC2CC(Br)=NO2)c1` (stereo not drawn) [1-(3-Bromo-4,5-dihydro-isoxazol-5-ylmethyl)-3-(2,5-dimethyl-phenyl)-urea], for which the Ki in experiment [2] (setting [4]) was determined as 960 µM.
Turning to `O=C(N[C@@H](Cc1c[nH]c2ccc(O)cc12)C(=O)NCC1CC(Br)=NO1)OCc1ccccc1` (stereo partly drawn) [1f, {(S)-1-[(3-Bromo-4,5-dihydro-isoxazol-5-ylmethyl)-carbamoyl]-2-(5-hydroxy-1H-indol-3-yl)-ethyl}-carbamic acid benzyl ester], in experiment [1], the kinh/Kl is on record as 2800 min^−1M^−1, the Ki was 110 µM and the “Inhibition Rate Constants (kinh)” value was determined as 0.31 min⁻¹.
On to `O=C(NCC1CC(Br)=NO1)Nc1ccccc1` (stereo not drawn) [1-(3-Bromo-4,5-dihydro-isoxazol-5-ylmethyl)-3-phenyl-urea], for which, in experiment [2] (setting [4]), the Ki was 1100 µM.
Regarding `O=C(N[C@@H](Cc1ccc(F)cc1)C(=O)NCC1CC(Br)=NO1)OCc1ccccc1` (stereo partly drawn) [1c, {(S)-1-[(3-Bromo-4,5-dihydro-isoxazol-5-ylmethyl)-carbamoyl]-2-(4-fluoro-phenyl)-ethyl}-carbamic acid benzyl ester], in experiment [1], the kinh/Kl was 980 min^−1M^−1, the Ki was 430 µM and the “Inhibition Rate Constants (kinh)” value worked out at 0.42 min⁻¹.
For `O=C(N[C@@H](Cc1ccc(O)cc1)C(=O)NCC1CC(Br)=NO1)OCCc1ccccc1` (stereo partly drawn) [3d, {(S)-1-[(3-Bromo-4,5-dihydro-isoxazol-5-ylmethyl)-carbamoyl]-2-(4-hydroxy-phenyl)-ethyl}-carbamic acid phenethyl ester] the same measures were 1500 min^−1M^−1, 61 µM and 0.093 min⁻¹.
Turning to `O=C(N[C@H](Cc1ccccc1)C(=O)NCC1CC(Br)=NO1)OCc1ccccc1` (stereo partly drawn) [1h, {(R)-1-[(3-Bromo-4,5-dihydro-isoxazol-5-ylmethyl)-carbamoyl]-2-phenyl-ethyl}-carbamic acid benzyl ester], the “Inhibition Rate Constants (kinh)” value in experiment [1] stood at 0.29 min⁻¹.
Consider `C[C@H](NC(=O)OCc1ccccc1)C(=O)NCC1CC(Br)=NO1` (stereo partly drawn) [1i, {(S)-1-[(3-Bromo-4,5-dihydro-isoxazol-5-ylmethyl)-carbamoyl]-ethyl}-carbamic acid benzyl ester], for which, in experiment [1], the kinh/Kl is given as 450 min^−1M^−1 and the “Inhibition Rate Constants (kinh)” value was 0.41 min⁻¹.
On to `O=C1Nc2ccccc2C1=O` [R1 = R2 = R3 = H], for which the Ki in experiment [2] (setting [3]) came to 860 µM.
Regarding `CN(CC1CC(Br)=NO1)C(=O)[C@H](Cc1ccccc1)NC(=O)OCc1ccccc1` (stereo partly drawn) [2b, {(S)-1-[(3-Bromo-4,5-dihydro-isoxazol-5-ylmethyl)-methyl-carbamoyl]-2-phenyl-ethyl}-carbamic acid benzyl ester], in experiment [1], the kinh/Kl turned out to be 730 min^−1M^−1 and the “Inhibition Rate Constants (kinh)” value came out at 0.19 min⁻¹.
For `O=C(N[C@@H](Cc1ccc(O)cc1)C(=O)NCC1CC(Br)=NO1)OCc1cccnc1` (stereo partly drawn) [3c, {(S)-1-[(3-Bromo-4,5-dihydro-isoxazol-5-ylmethyl)-carbamoyl]-2-(4-hydroxy-phenyl)-ethyl}-carbamic acid pyridin-3-ylmethyl ester], in experiment [1], the kinh/Kl is 2700 min^−1M^−1, the Ki came to 78 µM and the “Inhibition Rate Constants (kinh)” value was 0.21 min⁻¹.
Turning to `O=C(NCC1CC(Br)=NO1)Nc1ccc(F)cc1` (stereo not drawn) [1-(3-Bromo-4,5-dihydro-isoxazol-5-ylmethyl)-3-(4-fluoro-phenyl)-urea], the Ki in experiment [2] (setting [4]) came out at 1300 µM.
For `O=C1Nc2ccc(I)cc2C1=O` [R2 = R3 = H; R1 = I], the Ki in experiment [2] (setting [3]) is 22 µM.
With `O=C1Nc2c(cccc2-c2ccccc2)C1=O` [R1 = R2 = H; R3 = Ph], the Ki in experiment [2] (setting [3]) came out at 400 µM.
Regarding `O=C(NCC1CC(Br)=NO1)Nc1cc(C(F)(F)F)ccc1Cl` (stereo not drawn) [1-(3-Bromo-4,5-dihydro-isoxazol-5-ylmethyl)-3-(2-chloro-5-trifluoromethyl-phenyl)-urea], in experiment [2] (setting [4]), the Ki was 910 µM.
`O=C1Nc2ccc(F)cc2C1=O` [R2 = R3 = H; R1 = F]: in experiment [2] (setting [3]), the Ki worked out at 18 µM.
`O=C(N[C@@H](Cc1ccc(O)cc1)C(=O)NCC1CC(Br)=NO1)OCc1ccc2ccccc2c1` (stereo partly drawn) [3e, {(S)-1-[(3-Bromo-4,5-dihydro-isoxazol-5-ylmethyl)-carbamoyl]-2-(4-hydroxy-phenyl)-ethyl}-carbamic acid naphthalen-2-ylmethyl ester]: in experiment [1], the kinh/Kl was 1600 min^−1M^−1, the Ki stood at 43 µM and the “Inhibition Rate Constants (kinh)” value was 0.070 min⁻¹.
As for `O=C(N[C@@H](Cc1ccccc1)C(=O)OCC1CC(Br)=NO1)OCc1ccccc1` (stereo partly drawn) [2a, (S)-2-Benzyloxycarbonylamino-3-phenyl-propionic acid 3-bromo-4,5-dihydro-isoxazol-5-ylmethyl ester], in experiment [1], the kinh/Kl is given as 230 min^−1M^−1 and the “Inhibition Rate Constants (kinh)” value turned out to be 0.32 min⁻¹.
Regarding `O=C(C[C@H](NC(=O)OCc1ccccc1)C(=O)NCC1CC(Br)=NO1)NCc1ccccc1` (stereo partly drawn) [1g, {(S)-2-Benzylcarbamoyl-1-[(3-bromo-4,5-dihydro-isoxazol-5-ylmethyl)-carbamoyl]-ethyl}-carbamic acid benzyl ester], in experiment [1], the kinh/Kl was 2300 min^−1M^−1 and the “Inhibition Rate Constants (kinh)” value is 0.54 min⁻¹.
Regarding `O=C(N[C@@H](Cc1ccc(O)cc1)C(=O)NCC1CC(Br)=NO1)OCC1=Cc2ccccc2S1(=O)=O` (stereo partly drawn) [3f, {(S)-1-[(3-Bromo-4,5-dihydro-isoxazol-5-ylmethyl)-carbamoyl]-2-(4-hydroxy-phenyl)-ethyl}-carbamic acid 1,1-dioxo-1H-1λ6-benzo[b]thiophen-2-ylmethyl ester], in experiment [1], the kinh/Kl is 4400 min^−1M^−1, the Ki is 87 µM and the “Inhibition Rate Constants (kinh)” value stood at 0.38 min⁻¹.
